Measured values taken from paper PMC8236452, “Pharmacokinetics and safety of rucaparib in patients with advanced solid tumors and hepatic impairment” (Cancer Chemotherapy and Pharmacology, 2021).

Test: Plasma pharmacokinetics after a single oral dose of rucaparib 600 mg in patients with advanced solid tumors, by hepatic function group
Conditions: for AUC(0-inf) / AUC(0-t) / Cmax / Vd/F / half-life / Tmax: human, plasma, po, 600 mg, single oral rucaparib 600 mg; for AUC(0-inf): AUC0–inf; for AUC(0-t): AUC0–last; for Vd/F: Vz/F
[1] = Median (min–max), Child–Pugh mild hepatic impairment
[2] = Median (min–max), Child–Pugh moderate hepatic impairment
[3] = Median (min–max), Child–Pugh severe hepatic impairment
[4] = Median (min–max), NCI-ODWG moderate hepatic impairment
[5] = Median (min–max), NCI-ODWG normal hepatic function
[6] = GM, Child–Pugh mild hepatic impairment
[7] = GM, Child–Pugh moderate hepatic impairment
[8] = GM, Child–Pugh severe hepatic impairment
[9] = GM, NCI-ODWG moderate hepatic impairment
[10] = GM, NCI-ODWG normal hepatic function
[11] = Mean (SD), Child–Pugh mild hepatic impairment
[12] = Mean (SD), Child–Pugh moderate hepatic impairment
[13] = Mean (SD), Child–Pugh severe hepatic impairment
[14] = Mean (SD), NCI-ODWG moderate hepatic impairment
[15] = Mean (SD), NCI-ODWG normal hepatic function
[16] = linear regression of log-transformed PK parameter on hepatic function parameter (NCI-ODWG)

Method: In Part 1, patients received a single oral dose of rucaparib 600 mg on day 1; PK samples were collected and safety monitored through day 7.
Sample collection, processing, and shipping were conducted according to standardized protocols shared across study sites. Plasma samples were collected for PK analysis at the predose assessment and at 1, 2, 3, 4, 8, 12, 24, 48, 72, 96, 120, and 144 h postdose. A predose urine sample was collected less than 12 h prior to study drug administration. Total urine was collected 0–12 h and 12–24 h postdose. Total (bound and unbound) concentrations of rucaparib and its metabolite M324 in plasma and urine samples were determined by Q Squared Solutions BioSciences (Ithaca, NY, USA) using validated liquid chromatography mass spectrometry/mass spectrometry methods. Stable deuterium-labeled analytes were used as internal standards. The assay calibration ranges for plasma samples were 5–10,000 ng/mL for rucaparib and 1–1000 ng/mL for M324 with lower limits of quantification (LLOQ) of 5.00 and 1.00 ng/mL, respectively. For urine samples, the calibration range was 500–50,000 ng/mL for both rucaparib and M324, with a LLOQ of 500 ng/mL for both analytes. The precision was within 9.3% CV, and the accuracy was within ± 6.2%.
PK parameters were estimated from the concentration–time profiles. Actual elapsed time after dosing was used to estimate plasma PK parameters based on noncompartmental methods using Phoenix® WinNonlin® version 8.1.0 (Certara USA, Inc., Princeton, NJ, USA). […] Exploratory PK parameters for M324 calculated based on plasma and urine concentration-time data were Cmax, AUC0–last, AUC0–inf, t1/2, tmax, Ae0–24, and CLR, as data allowed.
PK parameters were calculated by noncompartmental analysis, analyzed using descriptive statistics, and presented by hepatic functional status. Analysis of variance (ANOVA) was used to compare PK parameters (e.g., Cmax, AUC0–last, and AUC0–inf) between the normal hepatic function group and the moderate hepatic impairment group per NCI-ODWG criteria. PK values were log-transformed before analysis. Baseline covariates (e.g., creatinine clearance [CLcr], sex, age, BMI, and ECOG PS) were tested for any significant effect (P value < 0.05). Geometric least-squares means were used to calculate the ratios of the PK parameters in the hepatic impairment group to those in the control group, along with 90% confidence intervals (CIs). The Wilcoxon rank-sum test was used to compare tmax values between the two groups, and estimates of the median differences were determined, along with 90% CIs. In addition, the relationships between log-transformed PK parameters (AUC0–last, AUC0–inf, Cmax) for rucaparib and M324 and hepatic function parameters (bilirubin and aspartate aminotransferase [AST]) relevant to the classification of hepatic impairment according to NCI-ODWG were explored by a linear regression approach.

CNCc1ccc(-c2[nH]c3cc(F)cc4c3c2CCNC4=O)cc1 [rucaparib]
AUC(0-inf) [1]: 8780 ng·h/mL | AUC(0-inf) [2]: 21100 ng·h/mL | AUC(0-inf) [3]: 48300 ng·h/mL | AUC(0-inf) [4]: 20600 ng·h/mL | AUC(0-inf) [5]: 18100 ng·h/mL | AUC(0-t) [6]: 8910 ng·h/mL | AUC(0-t) [7]: 22500 ng·h/mL | AUC(0-t) [8]: 23900 ng·h/mL | AUC(0-t) [9]: 17500 ng·h/mL | AUC(0-t) [10]: 13100 ng·h/mL | AUC(0-t) [11]: 11600 ng·h/mL | AUC(0-t) [12]: 24100 ng·h/mL | AUC(0-t) [13]: 42200 ng·h/mL | AUC(0-t) [14]: 25500 ng·h/mL | AUC(0-t) [15]: 16200 ng·h/mL | AUC(0-t) [1]: 8580 ng·h/mL | AUC(0-t) [2]: 18400 ng·h/mL | AUC(0-t) [3]: 42200 ng·h/mL | AUC(0-t) [4]: 17800 ng·h/mL | AUC(0-t) [5]: 17700 ng·h/mL | Cmax [6]: 550 ng/mL | Cmax [7]: 657 ng/mL | Cmax [8]: 692 ng/mL | Cmax [9]: 583 ng/mL | Cmax [11]: 604 ng/mL | Cmax [12]: 694 ng/mL | Cmax [13]: 827 ng/mL | Cmax [14]: 658 ng/mL | Cmax [15]: 685 ng/mL | Cmax [1]: 590 ng/mL | Cmax [2]: 762 ng/mL | Cmax [3]: 827 ng/mL | Cmax [4]: 471 ng/mL | Cmax [5]: 665 ng/mL | Vd/F [6]: 2320 L | Vd/F [7]: 1460 L | Vd/F [8]: 1530 L | Vd/F [9]: 1960 L | Vd/F [10]: 1650 L | Vd/F [11]: 3340 L | Vd/F [12]: 1660 L | Vd/F [13]: 2700 L | Vd/F [14]: 2840 L | Vd/F [15]: 2220 L | Vd/F [1]: 2130 L | Vd/F [2]: 1280 L | Vd/F [3]: 2700 L | Vd/F [4]: 2190 L | Vd/F [5]: 1270 L | half-life (t1/2, GM, Child–Pugh mild hepatic impairment): 25.2 h | half-life (t1/2, GM, Child–Pugh moderate hepatic impairment): 42.6 h | half-life (t1/2, GM, Child–Pugh severe hepatic impairment): 47.8 h | half-life (t1/2, GM, NCI-ODWG moderate hepatic impairment): 45 h | half-life (t1/2, GM, NCI-ODWG normal hepatic function): 26.1 h | half-life (t1/2, Mean (SD), Child–Pugh mild hepatic impairment): 27.5 h | half-life (t1/2, Mean (SD), Child–Pugh moderate hepatic impairment): 44.8 h | half-life (t1/2, Mean (SD), Child–Pugh severe hepatic impairment): 47.8 h | half-life (t1/2, Mean (SD), NCI-ODWG moderate hepatic impairment): 46.7 h | half-life (t1/2, Mean (SD), NCI-ODWG normal hepatic function): 28.5 h | half-life (t1/2, Median (min–max), Child–Pugh mild hepatic impairment): 26.6 h | half-life (t1/2, Median (min–max), Child–Pugh moderate hepatic impairment): 49.9 h | half-life (t1/2, Median (min–max), Child–Pugh severe hepatic impairment): 47.8 h | half-life (t1/2, Median (min–max), NCI-ODWG moderate hepatic impairment): 49.3 h | half-life (t1/2, Median (min–max), NCI-ODWG normal hepatic function): 26.3 h | Tmax [1]: 3.98 h | Tmax [2]: 3.95 h | Tmax [3]: 4.49 h | Tmax [4]: 3.96 h | Tmax [5]: 3.97 h | Slope estimate (90% CI), AUC0-inf vs AST [16]: 0.001 (–0.002 to 0.004) | Slope estimate (90% CI), AUC0-inf vs Bilirubin [16]: 0.003 (–0.014 to 0.020) | Slope estimate (90% CI), AUC0-last vs AST [16]: 0.001 (–0.002 to 0.004) | Slope estimate (90% CI), AUC0-last vs Bilirubin [16]: 0.002 (–0.015 to 0.019) | Slope estimate (90% CI), Cmax vs AST [16]: 0 (–0.002 to 0.001) | Slope estimate (90% CI), Cmax vs Bilirubin [16]: –0.002 (–0.011 to 0.007)
